Paper PMC10004634 (PLOS ONE, 2023)
Like-named read-outs stand apart in the source and are kept apart here.

Experiments:
Experiment in all cases: biochemical
Design in all cases: KINOMEscan scanMAX competition binding, DNA-tagged kinases, qPCR read-out, percent control at 300 nM
PIK3CA(Q546K) = PIK3CA(Q546K) (Homo sapiens, UniProt P42336, Q546K)
RIPK4 = biological target: T1, RIPK4 (Homo sapiens, UniProt P57078)
T1 sequence (P57078 1-832): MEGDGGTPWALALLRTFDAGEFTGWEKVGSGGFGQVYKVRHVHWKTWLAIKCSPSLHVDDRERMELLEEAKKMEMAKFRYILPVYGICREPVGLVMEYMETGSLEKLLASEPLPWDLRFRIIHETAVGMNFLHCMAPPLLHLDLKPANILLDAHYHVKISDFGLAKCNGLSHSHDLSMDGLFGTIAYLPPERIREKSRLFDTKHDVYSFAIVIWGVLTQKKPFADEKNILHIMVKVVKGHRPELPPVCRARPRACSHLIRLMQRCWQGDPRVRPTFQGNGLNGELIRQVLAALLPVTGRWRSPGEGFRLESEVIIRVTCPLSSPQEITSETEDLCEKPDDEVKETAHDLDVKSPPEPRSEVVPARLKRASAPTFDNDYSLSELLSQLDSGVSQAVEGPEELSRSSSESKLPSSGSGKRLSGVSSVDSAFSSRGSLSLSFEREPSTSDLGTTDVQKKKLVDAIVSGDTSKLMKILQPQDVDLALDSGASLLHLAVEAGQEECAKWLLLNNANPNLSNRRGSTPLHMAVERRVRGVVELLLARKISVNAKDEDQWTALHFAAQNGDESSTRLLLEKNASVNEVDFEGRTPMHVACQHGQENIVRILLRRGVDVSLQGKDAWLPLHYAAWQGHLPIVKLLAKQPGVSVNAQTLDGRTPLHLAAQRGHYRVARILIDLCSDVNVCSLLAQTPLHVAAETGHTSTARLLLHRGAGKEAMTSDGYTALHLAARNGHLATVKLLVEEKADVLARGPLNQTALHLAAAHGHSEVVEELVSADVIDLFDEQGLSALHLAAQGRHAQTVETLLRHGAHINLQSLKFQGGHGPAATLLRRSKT

IRAK3 = biological target: T2, IRAK3 (Homo sapiens, UniProt Q9Y616)
T2 sequence (Q9Y616 1-596): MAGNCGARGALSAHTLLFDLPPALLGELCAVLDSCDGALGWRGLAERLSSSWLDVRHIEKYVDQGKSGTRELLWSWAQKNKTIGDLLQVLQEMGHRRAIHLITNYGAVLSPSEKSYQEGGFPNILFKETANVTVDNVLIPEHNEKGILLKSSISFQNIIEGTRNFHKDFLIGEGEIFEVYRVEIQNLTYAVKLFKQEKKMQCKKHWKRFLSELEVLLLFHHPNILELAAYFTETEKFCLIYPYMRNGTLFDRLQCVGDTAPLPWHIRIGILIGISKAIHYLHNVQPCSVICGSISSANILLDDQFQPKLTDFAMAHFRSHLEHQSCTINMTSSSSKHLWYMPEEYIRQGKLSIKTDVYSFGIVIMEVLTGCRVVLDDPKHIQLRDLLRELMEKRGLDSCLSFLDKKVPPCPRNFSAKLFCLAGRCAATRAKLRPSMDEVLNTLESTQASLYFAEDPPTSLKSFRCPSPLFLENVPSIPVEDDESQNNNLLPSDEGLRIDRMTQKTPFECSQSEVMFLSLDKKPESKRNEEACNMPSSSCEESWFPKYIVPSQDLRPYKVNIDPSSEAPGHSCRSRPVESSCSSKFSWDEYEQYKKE

RIOK1 = biological target: T3, RIOK1 (Homo sapiens, UniProt Q9BRS2)
T3 sequence (Q9BRS2 1-568): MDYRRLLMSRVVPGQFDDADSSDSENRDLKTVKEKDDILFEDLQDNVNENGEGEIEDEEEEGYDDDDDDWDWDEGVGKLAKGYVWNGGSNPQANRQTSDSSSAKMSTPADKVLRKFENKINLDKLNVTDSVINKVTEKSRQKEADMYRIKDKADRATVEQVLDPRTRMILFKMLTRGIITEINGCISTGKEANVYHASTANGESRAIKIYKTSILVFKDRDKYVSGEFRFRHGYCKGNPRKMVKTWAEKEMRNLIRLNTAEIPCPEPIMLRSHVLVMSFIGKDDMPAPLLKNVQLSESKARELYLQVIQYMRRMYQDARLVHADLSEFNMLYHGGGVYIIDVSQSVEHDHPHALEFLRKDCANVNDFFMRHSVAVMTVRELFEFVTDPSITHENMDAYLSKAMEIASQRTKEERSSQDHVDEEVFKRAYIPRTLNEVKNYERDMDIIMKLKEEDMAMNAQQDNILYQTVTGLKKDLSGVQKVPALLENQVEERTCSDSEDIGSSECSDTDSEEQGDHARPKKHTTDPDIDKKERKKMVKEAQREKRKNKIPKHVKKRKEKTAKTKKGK

CSF1R = CSF1R (Homo sapiens, UniProt P07333)
Chain of CSF1R (P07333 whole entry): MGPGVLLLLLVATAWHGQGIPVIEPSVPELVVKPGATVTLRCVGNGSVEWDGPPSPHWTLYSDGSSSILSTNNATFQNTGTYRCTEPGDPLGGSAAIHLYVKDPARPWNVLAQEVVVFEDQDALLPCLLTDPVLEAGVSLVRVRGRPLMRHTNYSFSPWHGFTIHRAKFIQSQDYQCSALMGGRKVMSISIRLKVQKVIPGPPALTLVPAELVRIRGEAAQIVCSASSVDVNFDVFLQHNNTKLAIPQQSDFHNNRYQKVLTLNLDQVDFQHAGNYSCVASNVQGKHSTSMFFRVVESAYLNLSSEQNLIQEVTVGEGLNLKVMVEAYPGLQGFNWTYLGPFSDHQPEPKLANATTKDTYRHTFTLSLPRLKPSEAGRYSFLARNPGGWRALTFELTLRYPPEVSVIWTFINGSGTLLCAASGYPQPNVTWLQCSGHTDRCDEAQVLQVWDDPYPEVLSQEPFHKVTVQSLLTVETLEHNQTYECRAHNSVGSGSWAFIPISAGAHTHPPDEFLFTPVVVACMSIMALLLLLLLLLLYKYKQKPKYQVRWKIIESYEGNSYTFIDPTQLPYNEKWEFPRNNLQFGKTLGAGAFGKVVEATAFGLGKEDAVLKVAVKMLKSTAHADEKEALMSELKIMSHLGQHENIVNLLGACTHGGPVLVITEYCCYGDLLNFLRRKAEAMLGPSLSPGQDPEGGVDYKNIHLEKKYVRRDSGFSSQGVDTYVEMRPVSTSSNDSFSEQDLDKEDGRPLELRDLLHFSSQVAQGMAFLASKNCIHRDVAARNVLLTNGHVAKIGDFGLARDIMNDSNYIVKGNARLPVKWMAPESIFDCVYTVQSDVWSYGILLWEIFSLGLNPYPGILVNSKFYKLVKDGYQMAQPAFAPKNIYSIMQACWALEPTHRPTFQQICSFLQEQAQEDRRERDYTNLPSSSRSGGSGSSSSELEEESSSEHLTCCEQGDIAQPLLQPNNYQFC

PIP5K2C = biological target: T4, PIP5K2C (Homo sapiens, UniProt Q8TBX8)
T4 construct: gene PIP4K2C
T4 sequence (Q8TBX8 1-421): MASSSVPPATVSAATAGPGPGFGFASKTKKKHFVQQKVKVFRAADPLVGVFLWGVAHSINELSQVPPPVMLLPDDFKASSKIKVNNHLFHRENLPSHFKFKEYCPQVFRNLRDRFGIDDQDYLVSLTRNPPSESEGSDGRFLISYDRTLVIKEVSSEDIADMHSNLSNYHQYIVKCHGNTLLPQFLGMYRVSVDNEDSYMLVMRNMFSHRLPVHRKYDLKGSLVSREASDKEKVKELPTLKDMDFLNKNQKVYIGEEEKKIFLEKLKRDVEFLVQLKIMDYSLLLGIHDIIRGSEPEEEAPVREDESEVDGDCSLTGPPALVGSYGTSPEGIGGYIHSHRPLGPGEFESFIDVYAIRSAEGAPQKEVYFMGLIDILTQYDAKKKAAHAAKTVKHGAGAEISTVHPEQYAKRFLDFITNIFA

[1] = read-out: Percent control / Tirabrutinib
[2] = read-out: Percent control / Zanubrutinib
[3] = read-out: Percent control / Acalabrutinib
[4] = read-out: Percent control / Ibrutinib

Chain of PIK3CA(Q546K) (P42336 whole entry Q546K): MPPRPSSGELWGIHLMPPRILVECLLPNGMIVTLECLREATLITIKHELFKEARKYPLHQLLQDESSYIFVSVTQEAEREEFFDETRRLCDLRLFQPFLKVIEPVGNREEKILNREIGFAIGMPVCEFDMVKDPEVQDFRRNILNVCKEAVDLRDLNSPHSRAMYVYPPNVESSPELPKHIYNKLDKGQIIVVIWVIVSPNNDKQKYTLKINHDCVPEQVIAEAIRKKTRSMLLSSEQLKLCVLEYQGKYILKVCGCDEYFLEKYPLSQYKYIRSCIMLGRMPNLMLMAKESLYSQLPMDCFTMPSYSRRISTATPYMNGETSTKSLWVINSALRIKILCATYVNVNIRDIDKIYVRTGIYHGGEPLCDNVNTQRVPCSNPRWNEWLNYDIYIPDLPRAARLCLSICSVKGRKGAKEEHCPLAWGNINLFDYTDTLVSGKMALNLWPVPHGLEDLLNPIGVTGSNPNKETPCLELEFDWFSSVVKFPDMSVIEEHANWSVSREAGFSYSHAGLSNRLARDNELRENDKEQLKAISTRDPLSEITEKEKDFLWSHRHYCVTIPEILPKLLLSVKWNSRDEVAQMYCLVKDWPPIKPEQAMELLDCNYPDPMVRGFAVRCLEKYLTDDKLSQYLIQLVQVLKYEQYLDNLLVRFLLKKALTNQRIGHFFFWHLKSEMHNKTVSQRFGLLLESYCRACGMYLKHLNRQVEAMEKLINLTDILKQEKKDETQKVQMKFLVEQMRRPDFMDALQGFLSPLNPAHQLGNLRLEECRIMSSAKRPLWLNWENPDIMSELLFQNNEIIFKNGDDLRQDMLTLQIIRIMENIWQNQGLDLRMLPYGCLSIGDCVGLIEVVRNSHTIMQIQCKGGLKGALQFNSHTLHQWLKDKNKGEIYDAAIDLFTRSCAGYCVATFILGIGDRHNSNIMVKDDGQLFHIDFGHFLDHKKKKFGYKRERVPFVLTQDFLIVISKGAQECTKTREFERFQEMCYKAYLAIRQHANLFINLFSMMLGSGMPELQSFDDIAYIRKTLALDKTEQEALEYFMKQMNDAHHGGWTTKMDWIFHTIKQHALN

CC#CC(=O)N1CC[C@@H](n2c(=O)n(-c3ccc(Oc4ccccc4)cc3)c3c(N)ncnc32)C1 [Tirabrutinib] showed a remaining binding at 0.3 µM (PIK3CA(Q546K); [1]) of 78%, a remaining binding at 0.3 µM (RIPK4; [1]) of 70% and a remaining binding at 0.3 µM (IRAK3; [1]) of 80%. The remaining binding at 0.3 µM (RIOK1; [1]) was 79%.

With C=CC(=O)N1CCC([C@@H]2CCNc3c(C(N)=O)c(-c4ccc(Oc5ccccc5)cc4)nn32)CC1 [Zanubrutinib] the remaining binding at 0.3 µM (CSF1R; [2]) was 88%, the remaining binding at 0.3 µM (PIP5K2C; [2]) was 92% and the remaining binding at 0.3 µM (PIK3CA(Q546K); [2]) was 100%. It also gave a remaining binding at 0.3 µM (RIPK4; [2]) of 91%, a remaining binding at 0.3 µM (IRAK3; [2]) of 91% and a remaining binding at 0.3 µM (RIOK1; [2]) of 75%.

CC#CC(=O)N1CCC[C@H]1c1nc(-c2ccc(C(=O)Nc3ccccn3)cc2)c2c(N)nccn12 [Acalabrutinib] was tested, and the remaining binding at 0.3 µM (CSF1R; [3]) was 88%, the remaining binding at 0.3 µM (PIP5K2C; [3]) was 90% and the remaining binding at 0.3 µM (PIK3CA(Q546K); [3]) was 88%. It also gave a remaining binding at 0.3 µM (RIPK4; [3]) of 85%, a remaining binding at 0.3 µM (IRAK3; [3]) of 86% and a remaining binding at 0.3 µM (RIOK1; [3]) of 72%.

Compound C=CC(=O)N1CCC[C@@H](n2nc(-c3ccc(Oc4ccccc4)cc3)c3c(N)ncnc32)C1 [Ibrutinib] has a remaining binding at 0.3 µM (CSF1R; [4]) of 66%, a remaining binding at 0.3 µM (PIP5K2C; [4]) of 81% and a remaining binding at 0.3 µM (PIK3CA(Q546K); [4]) of 62%. The remaining binding at 0.3 µM (RIPK4; [4]) was 76%, the remaining binding at 0.3 µM (IRAK3; [4]) was 86% and the remaining binding at 0.3 µM (RIOK1; [4]) was 51%.
